Four molecules from US20240269155A1, “METHODS AND USES OF BORON COMPOUNDS IN THE TREATMENT OF NONTUBERCULOUS MYCOBACTERIUM INFECTIONS AND PHARMACEUTICAL COMPOSITIONS FOR TREATMENT OF SAME” (priority 2022, published 2024) can be followed below.

Converted amounts (≈) assume the structure as drawn. Where two headings read alike, the source gives them in different places. Where only a bound is given, the exact number is not on record here.

Usually MIC stands for the smallest concentration in the dilution series that meets the test's criterion for growth inhibition. One may read the half-life as the time needed for the level to fall by half in the phase considered. Broadly, the AUC(0-t) is exposure summed from dosing to a finite time, without extrapolation to infinity. One may read the MBC as the lowest tested concentration that kills the bacteria rather than only halting them.

One series relates to M. abscessus. Kind of series: MIC determination (CLSI M24-A2). Particulars: Mycobacteroides abscessus, read-out: MIC. It counts as cell-based, Mycobacterium abscessus. How it is done: (§1) The in vitro activity of the parent boron compound described herein was assessed by standard testing procedures such as the determination of minimum inhibitory concentration (MIC) as described in Clinical and Laboratory Standards Institute (CLSI) document M24-A2. Lower MIC values indicate high antibacterial activity, while higher MIC values indicate a reduced antibacterial activity. Generally, MIC values of about ≤2 mg/L indicate a good therapeutic (i.e., suitable for therapy) potency for antibacterial drugs, while MIC values of ≥8 mg/L indicate a lack of therapeutically useful activity for a test compound.
(§2) (MIC ranges from 0.063-2 mg/L).

Another series deals with M. avium. Kind of series: MIC determination (CLSI M24-A2). It counts as cell-based, Mycobacterium avium. Conditions: Mycobacterium avium, read-out: MIC. The method, then: as §1, §2
The subject of another series is M. intercelleulare. Kind of series: MIC determination (CLSI M24-A2). The class given is cell-based, Mycobacterium intercelleulare. Particulars: Mycobacterium, read-out: MIC. How it is done:
as §1, §2

For the next series, the system named is M. scrofulaceum. Kind of series: MIC determination (CLSI M24-A2). It counts as cell-based, Mycobacterium scrofulaceum. Conditions: Mycobacterium scrofulaceum, read-out: MIC. How it is done:
as §1, §2

For another series, the system named is M. fortuitum. As to the kind of experiment: MIC determination (CLSI M24-A2). It counts as cell-based, Mycobacterium fortuitum. How it is done: as §1, §2
The next series deals with M. gordonae. As to the kind of experiment: MIC determination (CLSI M24-A2). It counts as cell-based, Mycobacterium gordonae. Particulars: Mycobacterium gordonae, read-out: MIC. The method, then:
as §1, §2

The next series concerns M. smegmatis. As to the kind of experiment: MIC determination (CLSI M24-A2). The class given is cell-based, Mycobacterium smegmatis. The method, then: as §1, §2
The next series deals with Mycobacteria pathogens. Kind of series: MIC against mycobacteria pathogens, summary over species. The class given is cell-based, nontuberculous Mycobacterium.
A further series deals with M. massiliense. As to the kind of experiment: MIC determination (CLSI M24-A2). It counts as cell-based, Mycobacterium massiliense. Conditions: Mycobacteroides abscessus, read-out: MIC. How it is done: as §1, §2
A further series concerns M. peregrinum. As to the kind of experiment: MIC determination (CLSI M24-A2). It counts as cell-based, Mycobacterium peregrinum. How it is done: as §1, §2
Series [1] in a line: Lung distribution study in mouse. It counts as in vivo, Balb/C mouse. Conditions: 10 mg/kg po.
Series [2] relates to clinical isolates of M. abscessus complex. Kind of series: MIC against clinical isolates of M. abscessus complex. The class given is cell-based, M. abscessus and M. massiliense. Conditions: Mycobacteroides abscessus, read-out: MIC.
For series [3] the test system is unchanged. Kind of series: MBC against clinical isolates of M. abscessus complex. The class given is cell-based, M. abscessus and M. massiliense. Conditions: for Classification: from MBC/MIC ratio.
Where [4] appears, read: Mycolicibacterium fortuitum, read-out: MIC.
Setting [5] is: Mycolicibacterium smegmatis, read-out: MIC.
Setting [6] is: Mycolicibacterium peregrinum, read-out: MIC.

On to `CC(C)C(=O)OC[C@H](COc1cccc2c1B(O)O[C@@H]2CN)OC(=O)C(C)C.Cl` [drawing 20], for which the minimal inhibitory concentration (MIC) with M. abscessus, in the series with M. avium and in the series on M. intercelleulare was more than 8 µg/mL in each case.

In the case of `OB1OCc2cc(F)ccc21` [AN2690], the MIC with M. abscessus was more than 8 µg/mL; in the series on M. scrofulaceum it was 8 µg/mL (≈ 52.7 µM); in the series with M. fortuitum (setting [4]) it was more than 8 µg/mL; with M. avium, more than 8 µg/mL; in the series on M. gordonae, 8 µg/mL (≈ 52.7 µM); in the series on M. intercelleulare, more than 8 µg/mL. Further, the MIC in the series on M. smegmatis (setting [5]) was more than 8 µg/mL; in the series with M. massiliense, 4 µg/mL (≈ 26.3 µM); in the series with M. peregrinum (setting [6]), more than 8 µg/mL. For the same molecule, the “activity against all NTM species tested” value in the series with Mycobacteria pathogens (all NTM species tested) is on record as “moderate or no activity”.

On to `CC(C)C(=O)OC[C@H](COc1cccc2c1B(O)O[C@@H]2CN)OC(=O)C(C)C.Cl` [Example 2, (2S)-1-{[(3S)-3-(Aminomethyl)-1-hydroxy-1,3-dihydrobenzo[2,1-c][1,2]oxaborol-7-yl]oxy}-3-[(2-methylpropanoyl)oxy]propan-2-yl 2-methylpropanoate hydrochloride], for which, in series [1] (analyte Example 2 (prodrug), lung), the AUClast was 968 ng·h/g. Also, the “conversion of prodrug to Example 4 in vivo” value in series [1] (plasma) was “rapidly converted to Example 4”. In addition, in series [1] (Balb/C, analyte Example 2 (prodrug), lung), the half-life is 6.42 h. The AUC(0-t) in [1] (Balb/C, analyte Example 2 (prodrug), plasma) turned out to be 0.0421 ng·h/mL.

With `Cl.NC[C@H]1OB(O)c2c(OCCO)ccc(Cl)c21` [GSK656, reference compound], the MIC in series [2] (clinical isolate A35), in [2] (clinical isolate A51), in [2] (clinical isolate A197), in [2] (clinical isolate A213), in series [2] (clinical isolate A215) and in series [2] (clinical isolate A217) was 0.063 µg/mL in each case. For the same molecule, the MIC amounted to 0.063 µg/mL in [2] (clinical isolate A222); 0.063 µg/mL in [2] (clinical isolate A255); 0.125 µg/mL in [2] (clinical isolate A268); 0.125 µg/mL in [2] (clinical isolate A274); 0.063 µg/mL in series [2] (clinical isolate A311); 0.125 µg/mL in [2] (clinical isolate A353). Also, the MIC in series [2] (clinical isolate G73), in series [2] (clinical isolate G74), in [2] (clinical isolate G87), in series [2] (clinical isolate G104), in [2] (clinical isolate G110) and in series [2] (clinical isolate G164) was 0.063 µg/mL in each case. Besides, the MIC in series [2] (clinical isolate G182) was 0.063 µg/mL; in the series with M. abscessus it was 0.063 µg/mL; in the series on M. scrofulaceum, 4 µg/mL; in the series with M. fortuitum, more than 8 µg/mL; in the series on M. fortuitum (setting [4]), not below 8 µg/mL; with M. avium it was more than 8 µg/mL. Further, the MIC was 0.5 µg/mL in the series with M. gordonae; more than 8 µg/mL with M. intercelleulare; more than 8 µg/mL against M. smegmatis; not below 8 µg/mL in the series on M. smegmatis (setting [5]); 0.063 µg/mL in the series on M. massiliense; 8 µg/mL against M. peregrinum. Further, in the series on M. peregrinum (setting [6]), the MIC was not below 8 µg/mL. For the same molecule, the “fold less active than Example 4 (MIC)” value in the series with Mycobacteria pathogens (M. fortuitum, M. peregrinum, M. smegmatis) is listed as “more than 64 fold”. Besides, the “bactericidal/bacteriostatic classification over the isolates” value in [3] (20 clinical isolates of M. abscessus complex) is recorded as “bacteriostatic against all isolates”. The MBC is more than 2 µg/mL in [3] (Mycobacteroides abscessus, clinical isolate A35, read-out: MBC); more than 2 µg/mL in [3] (Mycobacteroides abscessus, clinical isolate A51, read-out: MBC); more than 2 µg/mL in [3] (Mycobacteroides abscessus, clinical isolate A197, read-out: MBC); 2 µg/mL in series [3] (Mycobacteroides abscessus, clinical isolate A213, read-out: MBC); 2 µg/mL in series [3] (Mycobacteroides abscessus, clinical isolate A215, read-out: MBC); 2 µg/mL in series [3] (Mycobacteroides abscessus, clinical isolate A217, read-out: MBC). Besides, the MBC in [3] (Mycobacteroides abscessus, clinical isolate A255, read-out: MBC) was 2 µg/mL; in series [3] (Mycobacteroides abscessus, clinical isolate A268, read-out: MBC), more than 4 µg/mL; in series [3] (Mycobacteroides abscessus, clinical isolate A274, read-out: MBC), more than 4 µg/mL; in [3] (Mycobacteroides abscessus, clinical isolate A311, read-out: MBC), 1 µg/mL; in series [3] (Mycobacteroides abscessus, clinical isolate A353, read-out: MBC), 2 µg/mL; in series [3] (Mycobacteroides abscessus, clinical isolate G73, read-out: MBC) it was more than 2 µg/mL. The MBC is more than 4 µg/mL in series [3] (Mycobacteroides abscessus, clinical isolate G74, read-out: MBC); more than 2 µg/mL in series [3] (Mycobacteroides abscessus, clinical isolate G87, read-out: MBC); 2 µg/mL in series [3] (Mycobacteroides abscessus, clinical isolate G104, read-out: MBC); more than 2 µg/mL in series [3] (Mycobacteroides abscessus, clinical isolate G110, read-out: MBC); more than 2 µg/mL in [3] (Mycobacteroides abscessus, clinical isolate G164, read-out: MBC); more than 2 µg/mL in [3] (Mycobacteroides abscessus, clinical isolate G182, read-out: MBC). The MBC result in [3] (clinical isolate A222) was “>>”. Besides, the Classification entry in series [3] (clinical isolate A35), in series [3] (clinical isolate A51), in [3] (clinical isolate A197), in [3] (clinical isolate A213), in series [3] (clinical isolate A215) and in series [3] (clinical isolate A217) was “Bacteriostatic (bacteriostatic if the ratio was >4)” in each case. For the same molecule, the Classification entry in series [3] (clinical isolate A222), in series [3] (clinical isolate A232), in series [3] (clinical isolate A255), in series [3] (clinical isolate A268), in series [3] (clinical isolate A274) and in [3] (clinical isolate A311) was “Bacteriostatic (bacteriostatic if the ratio was >4)” throughout. Further, the Classification entry in [3] (clinical isolate A353), in series [3] (clinical isolate G73), in [3] (clinical isolate G74), in series [3] (clinical isolate G87), in series [3] (clinical isolate G104) and in series [3] (clinical isolate G110) was “Bacteriostatic (bacteriostatic if the ratio was >4)” throughout. The Classification result in [3] (clinical isolate G164) and in series [3] (clinical isolate G182) was “Bacteriostatic (bacteriostatic if the ratio was >4)” each time.
